Data from article PMC12892976, “Alkylation-based optimization of antifungal FPPS inhibitors yields a potent, broad-spectrum lipophilic zoledronate derivative” (mBio, 2025).
≈ marks a conversion by molar mass, not a printed value. Like-named read-outs stand apart in the source and are kept apart here.

Columns and labels:
[1] = test system: Saccharomyces cerevisiae; assay: MIC/MFC broth microdilution (CLSI); format: cell-based; conditions: Saccharomyces cerevisiae S288c
Description: (§1) Antifungal susceptibility was determined by broth microdilution according to the CLSI guidelines described in M27-Ed4 ([16]). […] MFC was determined by back-plating drug-treated cultures from MIC broths onto SDA plates. The MFC was defined as the lowest concentration from which no colonies could be cultured.

[2] = test system: Candida albicans; assay: MIC/MFC broth microdilution (CLSI); format: cell-based; conditions: Candida albicans SC5314
Description: as §1

[3] = test system: Cryptococcus deuterogattii; assay: checkerboard drug interaction (FICI, MICc);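 as to all read-outs here: simplified diagonal checkerboard screen pairing antifungal drugs with FPPS inhibitors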; format: cell-based; conditions: C. deuterogattii; for INH FD (MIC-MICc fold decrease): fold decrease of inhibitor MIC
Description: (§2) Drug interactions between antifungals and FPPS inhibitors were investigated using a simplified checkerboard diagonal screening method ([45]). […] FICIs were determined according to the Loewe additivity model ([17]).

[4] = test system: Cryptococcus neoformans; assay: checkerboard drug interaction (FICI, MICc);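 as to all read-outs here: antifungal plus FPPS inhibitor pairs tested against Cryptococcus neoformans by simplified diagonal checkerboard screening, FICI computed under the Loewe additivity model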; format: cell-based; conditions: C. neoformans; for INH FD (MIC-MICc fold decrease): fold decrease of inhibitor MIC
Description: as §2

[5] = test system: Saccharomyces cerevisiae; assay: checkerboard drug interaction (FICI, MICc);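 as to all read-outs here: simplified diagonal checkerboard screen pairing antifungals with FPPS inhibitors, FICI calculated under the Loewe additivity model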; format: cell-based; design: INH MICc / INH MICc (ITR:INH) / INH MICc (KET:INH) / INH MICc (FLC:INH): unit not given beside the values; conditions: S. cerevisiae; for INH FD (MIC-MICc fold decrease): fold decrease of inhibitor MIC
[6] = test system: Candida glabrata; assay: checkerboard drug interaction (FICI, MICc);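 as to all read-outs here: simplified diagonal checkerboard screen pairing antifungals with FPPS inhibitors, FICI calculated under the Loewe additivity model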; format: cell-based; conditions: C. glabrata; for INH FD (MIC-MICc fold decrease): fold decrease of inhibitor MIC
Description: as §2

[7] = test system: Candida albicans; assay: checkerboard drug interaction (FICI, MICc);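 as to all read-outs here: antifungal plus FPPS inhibitor combinations on Candida albicans tested by a simplified diagonal checkerboard screen, with FICI calculated under the Loewe additivity model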; format: cell-based; conditions: C. albicans; for INH FD (MIC-MICc fold decrease): fold decrease of inhibitor MIC
Description: as §2

[8] = test system: Aspergillus flavus; assay: checkerboard drug interaction (FICI, MICc);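 also: simplified diagonal checkerboard screen pairing azole antifungals with FPPS inhibitors, FICI calculated under the Loewe additivity model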; format: cell-based; design: INH MICc (KET:INH) / INH MICc (FLC:INH): unit not given beside the values; conditions: A. flavus
[9] = test system: Aspergillus fumigatus; assay: checkerboard drug interaction (FICI, MICc);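 as to all read-outs here: simplified diagonal checkerboard screen pairing antifungals with FPPS inhibitors against Aspergillus fumigatus, with FICI calculated under the Loewe additivity model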; format: cell-based; conditions: A. fumigatus; for INH FD (MIC-MICc fold decrease): fold decrease of inhibitor MIC
Description: as §2

[10] = test system: Trichophyton rubrum; assay: checkerboard drug interaction (FICI, MICc);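 also: simplified diagonal checkerboard screen pairing azole antifungals with FPPS inhibitors, FICI calculated under the Loewe additivity model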; format: cell-based; conditions: T. rubrum
Description: as §2

[11] = test system: HEK-293T cells; assay: MTT reduction cytotoxicity assay; format: cell-based; conditions: Homo sapiens, HEK-293T, 72 h, MTT, 72 h
[12] = test system: eight fungal species; assay: MIC/MFC summary across the eight fungal species of Table 1; format: cell-based
Description: The antifungal activity of these compounds was evaluated according to CLSI guidelines ([16]).

[13] = test system: eight fungal species; assay: checkerboard interaction with azoles, summary across the eight species; format: cell-based; conditions: geometric mean MIC in combination with azoles
From the text: Synergy between lipophilic FPPS inhibitors and azole antifungals was investigated by determining the fractional inhibitory concentration index (FICI) (Fig. 2; Table S1 Fig. S1) ([17]). […]. Derivatives PLA9 and 11, and PDA9, 11, and 12 antagonized azoles in C. albicans, C. neoformans, and C. deuterogattii, yet were largely synergistic in C. glabrata and S. cerevisiae. […].

[14] = test system: Cryptococcus deuterogattii; assay: MIC/MFC broth microdilution (CLSI); conditions: Cryptococcus deuterogattii;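 also: broth microdilution per CLSI M27-Ed4. MFC is the lowest concentration yielding no colonies when MIC broths are subcultured onto SDA plates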
Description: as §1

[15] = test system: Cryptococcus neoformans; assay: MIC/MFC broth microdilution (CLSI); conditions: Cryptococcus neoformans;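 also: susceptibility testing followed the CLSI M27-Ed4 broth microdilution document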
Description: as §1

[16] = test system: Candida glabrata; assay: MIC/MFC broth microdilution (CLSI); conditions: Nakaseomyces glabratus, CBS138;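 also: broth microdilution following CLSI M27-Ed4, MFC taken as the lowest drug level yielding no growth once MIC wells were subcultured on SDA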
Description: as §1

[17] = test system: Aspergillus flavus; assay: MIC/MFC broth microdilution (CLSI); conditions: ATCC204304
Description: as §1

[18] = test system: Aspergillus fumigatus; assay: MIC/MFC broth microdilution (CLSI); conditions: ATCC204305
Description: as §1

[19] = test system: Trichophyton rubrum; assay: MIC/MFC broth microdilution (CLSI); conditions: Trichophyton rubrum
Description: as §1

[20] = FLC:INH combination, MIC of the inhibitor in combination with FLC
[21] = FLC:INH combination, fold decrease of FLC MIC
[22] = ITR:INH combination, MIC of the inhibitor in combination with ITR
[23] = ITR:INH combination, fold decrease of ITR MIC
[24] = KET:INH combination, MIC of the inhibitor in combination with KET
[25] = KET:INH combination, fold decrease of KET MIC
[26] = FLC:INH combination, MIC of FLC in combination with the inhibitor
[27] = ITR:INH combination, MIC of ITR in combination with the inhibitor
[28] = KET:INH combination, MIC of KET in combination with the inhibitor
[29] = Fractional Inhibitory Concentration Index, fluconazole + inhibitor
[30] = Fractional Inhibitory Concentration Index, itraconazole + inhibitor
[31] = Fractional Inhibitory Concentration Index, ketoconazole + inhibitor
[32] = MIC of the inhibitor in combination with fluconazole
[33] = MIC of the inhibitor in combination with itraconazole
[34] = MIC of the inhibitor in combination with ketoconazole
[35] = MIC-MICc fold decrease of fluconazole, negative = increase
[36] = MIC-MICc fold decrease of itraconazole, negative = increase
[37] = MIC-MICc fold decrease of ketoconazole, negative = increase
[38] = MIC-MICc fold decrease of the inhibitor, with fluconazole
[39] = MIC-MICc fold decrease of the inhibitor, with itraconazole
[40] = MIC-MICc fold decrease of the inhibitor, with ketoconazole

CCCCCCCCCCN1CCC[C@H]1C(=O)N[C@@H](CC(=O)OC)C(=O)OC [dmPLA10]
MFC [1]: 16 µg/mL (≈ 40.1 µM)
MIC [1]: 8 µg/mL (≈ 20.1 µM)
MFC [2]: 32 µg/mL (≈ 80.3 µM)
MIC [2]: 32 µg/mL (≈ 80.3 µM)
FICI ([3]; FLC:INH combination): 0.38
INH MICc [3, 20]: 8
FLC FD (MIC-MICc fold decrease) [3, 21]: 8
INH FD (MIC-MICc fold decrease) ([3]; FLC:INH combination): 4
FICI ([3]; ITR:INH combination): 0.5
INH MICc [3, 22]: 8
ITR FD (MIC-MICc fold decrease) [3, 23]: 4
INH FD (MIC-MICc fold decrease) ([3]; ITR:INH combination): 4
FICI ([3]; KET:INH combination): 0.28
INH MICc [3, 24]: 8
KET FD (MIC-MICc fold decrease) [3, 25]: 32
INH FD (MIC-MICc fold decrease) ([3]; KET:INH combination): 4
FICI ([4]; FLC:INH combination): 0.75
INH MICc [4, 20]: 8
FLC FD (MIC-MICc fold decrease) [4, 21]: 4
INH FD (MIC-MICc fold decrease) ([4]; FLC:INH combination): 2
FICI ([4]; ITR:INH combination): 0.75
INH MICc [4, 22]: 8
ITR FD (MIC-MICc fold decrease) [4, 23]: 4
INH FD (MIC-MICc fold decrease) ([4]; ITR:INH combination): 2
FICI ([4]; KET:INH combination): 0.75
INH MICc [4, 24]: 8
KET FD (MIC-MICc fold decrease) [4, 25]: 4
INH FD (MIC-MICc fold decrease) ([4]; KET:INH combination): 2
FICI ([5]; FLC:INH combination): ≥4
FLC MICc [5, 26]: 8
INH MICc [5, 20]: 16
FLC FD (MIC-MICc fold decrease) [5, 21]: -2
INH FD (MIC-MICc fold decrease) ([5]; FLC:INH combination): -2
FICI ([5]; ITR:INH combination): 1.13
ITR MICc [5, 27]: 0.25
INH MICc [5, 22]: 1
ITR FD (MIC-MICc fold decrease) [5, 23]: 1
INH FD (MIC-MICc fold decrease) ([5]; ITR:INH combination): 8
FICI ([5]; KET:INH combination): 1.13
KET MICc [5, 28]: 2
INH MICc [5, 24]: 1
KET FD (MIC-MICc fold decrease) [5, 25]: 1
INH FD (MIC-MICc fold decrease) ([5]; KET:INH combination): 8
FICI ([6]; FLC:INH combination): ≥4
INH MICc [6, 20]: 16
FLC FD (MIC-MICc fold decrease) [6, 21]: 1
INH FD (MIC-MICc fold decrease) ([6]; FLC:INH combination): 1
FICI ([6]; ITR:INH combination): 1.5
INH MICc [6, 22]: 4
ITR FD (MIC-MICc fold decrease) [6, 23]: 2
INH FD (MIC-MICc fold decrease) ([6]; ITR:INH combination): 4
FICI ([6]; KET:INH combination): 3
INH MICc [6, 24]: 8
KET FD (MIC-MICc fold decrease) [6, 25]: 1
INH FD (MIC-MICc fold decrease) ([6]; KET:INH combination): 2
FICI ([7]; FLC:INH combination): 1.5
INH MICc [7, 20]: 8
FLC FD (MIC-MICc fold decrease) [7, 21]: 1
INH FD (MIC-MICc fold decrease) ([7]; FLC:INH combination): 2
FICI ([7]; ITR:INH combination): 0.75
INH MICc [7, 22]: 4
ITR FD (MIC-MICc fold decrease) [7, 23]: 2
INH FD (MIC-MICc fold decrease) ([7]; ITR:INH combination): 4
FICI ([7]; KET:INH combination): 0.75
INH MICc [7, 24]: 4
KET FD (MIC-MICc fold decrease) [7, 25]: 2
INH FD (MIC-MICc fold decrease) ([7]; KET:INH combination): 4
FICI (FLC:INH) [8, 29]: 2
FICI (ITR:INH) [8, 30]: 1.03
FICI (KET:INH) [8, 31]: 1.5
INH MICc (FLC:INH) [8, 32]: 64
INH MICc (ITR:INH) [8, 33]: 2
INH MICc (KET:INH) [8, 34]: 32
FLC FD (FLC:INH) [8, 35]: 1
ITR FD (ITR:INH) [8, 36]: 1
KET FD (KET:INH) [8, 37]: 1
INH FD (FLC:INH) [8, 38]: 1
INH FD (ITR:INH) [8, 39]: 32
INH FD (KET:INH) [8, 40]: 2
FICI ([9]; FLC:INH combination): 1.06
FLC MICc [9, 26]: 8
INH MICc [9, 20]: 16
FLC FD (MIC-MICc fold decrease) [9, 21]: 16
INH FD (MIC-MICc fold decrease) ([9]; FLC:INH combination): 1
FICI ([9]; ITR:INH combination): 0.63
ITR MICc [9, 27]: 0.063
INH MICc [9, 22]: 2
ITR FD (MIC-MICc fold decrease) [9, 23]: 2
INH FD (MIC-MICc fold decrease) ([9]; ITR:INH combination): 8
FICI ([9]; KET:INH combination): 2.25
KET MICc [9, 28]: 1
INH MICc [9, 24]: 32
KET FD (MIC-MICc fold decrease) [9, 25]: 4
INH FD (MIC-MICc fold decrease) ([9]; KET:INH combination): -2
FICI (FLC:INH) [10, 29]: ≥4
FICI (ITR:INH) [10, 30]: 1.03
FICI (KET:INH) [10, 31]: 1.06
INH MICc (FLC:INH) [10, 32]: 64
INH MICc (ITR:INH) [10, 33]: 8
INH MICc (KET:INH) [10, 34]: 8
FLC FD (FLC:INH) [10, 35]: 2
ITR FD (ITR:INH) [10, 36]: 32
KET FD (KET:INH) [10, 37]: 16
INH FD (FLC:INH) [10, 38]: < -4
INH FD (ITR:INH) [10, 39]: 1
INH FD (KET:INH) [10, 40]: 1
IC50 ([11]; HEK-293T cells, read-out: IC50): 1.57 µg/mL (≈ 3.95 µM)
IC50 ([11]; read-out: HEK IC50): 1.57 µg/mL (≈ 3.95 µM)
Geometric mean MFC ([12]; across eight species): 64.0 µg/mL
MFC ([12]; across eight species, read-out: Geometric mean MFC): 64 µg/mL (≈ 161 µM)
MIC ([12]; geometric mean across eight species, read-out: GM fungal MIC): 20.7 µg/mL (≈ 51.9 µM)
MIC ([12]; read-out: Geometric mean MIC): 20.7 µg/mL (≈ 51.9 µM)
GM fungal MICc [13]: 8
MFC [14]: 128 µg/mL (≈ 321 µM)
MIC [14]: 16 µg/mL (≈ 40.1 µM)
MFC [15]: 64 µg/mL (≈ 161 µM)
MIC [15]: 16 µg/mL (≈ 40.1 µM)
MFC [16]: 32 µg/mL (≈ 80.3 µM)
MIC [16]: 32 µg/mL (≈ 80.3 µM)
MFC [17]: 64 µg/mL (≈ 161 µM)
MIC [17]: 64 µg/mL (≈ 161 µM)
MFC [18]: 128 µg/mL (≈ 321 µM)
MIC [18]: 32 µg/mL (≈ 80.3 µM)
MFC [19]: > 128 µg/mL
MIC [19]: 8 µg/mL (≈ 20.1 µM)
